# Tested on: 5-α-reductase
# Test: Metabolization of 14C testosterone to DHT in reconstructed epidermis (thin-layer chromatography, phosphoimager)
# Assay type: cell-based, human
# Details: Finasterid 10 μM; control = 100
# Experimental: • Epidermis SkinEthic (17 days, 0.63 cm^2) in culture, 37° C., 5% CO2 • Reference substance: Finasteride • Testosterone: [4-14-C]
# The epidermis was precultivated for 24 hours on plates with 24 positions. The experiments with the products and the reference substance Finasterid (10 μm) were carried out three times (3 epidermises per experiment). After treatment for 24 hours, the media of the subepidermis were renewed and replaced by 300 μl of fresh culture medium. 100 μl of radioactively marked testosterone solution were applied to the upper surface (horny layer) of the epidermis (TO). After another 24 hours, the subepidermis medium was removed for analysis.
# The steroids present in the culture medium were extracted for analysis of the metabolism and separated into their molecular derivatives by thin-layer chromatography (on silica gel). The quantity of transformed testosterone was determined by radioactive counting of the various spots using a phosphoimager.
smiles,measurement,value
"CC(C)(C)NC(=O)[C@H]1CC[C@H]2[C@@H]3CC[C@H]4NC(=O)C=C[C@]4(C)[C@H]3CC[C@]12C [Finasterid, Finasteride]",DHT formed in %,8%

# — US20060083794A1, “Use of an extract from the plant argania spinosa” (priority 2002, published 2006)
